# Results reported in US3947466A, “Intermediates and process for the production of certain triazolobenzodiazepines” (priority 1974, dated 1976).
# Entries after “also recorded” stand apart in the source; their conditions may differ. Structures can show the parent of a compound that is named as a salt. Where two headings read alike, the source gives them in different places.
# What was measured:
# nicotine salicylate = assay: animal or person; assay type: in vivo, mice; settings: for ED50: Mus musculus, ip
# Protocol: Nicotine antagonism test: Mice in a group of 6 are injected with the test compound, 8-chloro-1-[(dimethylamino)methyl]-6-phenyl-4H-s-triazolo[4,3-a][1,4]benzodiazepine. Thirty minutes later the mice, including control (untreated) mice, are injected with nicotine salicylate (2 mg./kg.). The control mice show overstimulation, i.e., (1) running convulsions (2) tonic extensor fits; followed by (3) death.
# [1] = Pedestal test: tranquilized mice stay on the pedestal for more than 1 minute; assay type: in vivo; settings: Mus musculus, ip
# Protocol: Pedestal Test: The untreated mouse leaves the pedestal in less than a minute to climb back to the floor of the standard mouse box. Tranquilized mice will stay on the pedestal for more than 1 minute. The ED50 (intraperitoneal administration) was 0.8 mg./kg.
# LD50 values in mice = settings: mouse, in vivo
# oxotremorine [2] = assay: animal or person; assay type: in vivo, mice (male, Strain CF=Carworth Farms); settings: for Oxo (Oxotremorine test): TABLE V; for ED50: Mus musculus, ip, 0.5 h, read-out: ED50, oxotremorine hypothermia antagonism (temperature at least 4° C. higher than control mice)
# Protocol: Hypothermic tests with oxotremorine: [1-(4-pyrrolidino-2-butynyl)-2-pyrrolidinone].
# The present compounds were tested as follows. […] The lowering of the body temperature was measured rectally with an electronic thermometer, before and 30 minutes after drug administration. After the drug administration the mice were kept at 19° C. in cages. A 4° difference between the control mice (oxotremorine alone) and the treated mice (oxotremorine and test compound) was used to indicate the antagonistic action of the test compound.
# [3] = test system: apomorphine hydrochloride; settings: TABLE V
# yohimbine hydrochloride = assay: in vivo; settings: for YO (Yohimbine test): TABLE V; for ED50: Mus musculus, 2 h, read-out: ED50, yohimbine potentiation (causes 50% of the mice to die)
# Protocol: (§1) Ten male CF mice, 18-22 g., were injected with the anti-depressant and 30 minutes later with 30 […] hydrochloride (YCl) in saline solution. After two hours, the LD50 were determined.
# [4] = Chimney test: ability of mice to back up and out of a vertical glass cylinder within 30 seconds; assay type: in vivo; settings: Mus musculus, ip
# From the text: The test determines the ability of mice to back up and out of a vertical glass cylinder within 30 seconds. At the effective dosage, 50% of the mice failed doing it.
# [5] = Dish test: mice remaining in the dish for more than 3 minutes (tranquilization); assay type: in vivo; settings: Mus musculus, ip
# Protocol: Dish test: Mice in Petri dishes (10 cm. diameter, 5 cm. high, partially embedded in wood shavings), climb out in a very short time, when not treated. Mice remaining in the dish for more than 3 minutes indicates tranquilization.
# [6] = test system: apomorphine hydrochloride; assay: animal or person; settings: Mus musculus, ip, 0.5 h, read-out: ED50, potentiation of apomorphine gnawing
# strychnine sulfate = assay: animal or person; assay type: in vivo, mice
# Protocol: The test consists in orally administering into groups of 6 mice the test compound, and 30 minutes later 3 mg./kg. strychnine sulfate intraperitoneally. The survivors after 4 hours reflect the activity of the compound as a muscle relaxant and antispasmodic.
# oxotremorine [7] = settings: cited from earlier work; for effect on oxotremorine-induced temperature decrease / hypothermic response / hypothermic response: mice, background statement
# in vivo = settings: mouse, in vivo, ip
# Protocol: as §1
# [8] = mice, route not given, TABLE IV
structure (smiles),measurement,setting,value
"CN(C)Cc1nnc2n1-c1ccccc1C(c1ccccc1Cl)=NC2 [1-[(dimethylamino)methyl]-6-(o-chlorophenyl)-4H-s-triazolo-[4,3-a][1,4]benzodiazepine]",ED50,nicotine salicylate; read-out: ED50 Ni,0.15 mg/kg
same,ED50,[1]; read-out: ED50 P,22 mg/kg
same,LD50,LD50 values in mice; TABLE V,> 100 mg/kg
same,Oxo (Oxotremorine test),oxotremorine [2],> 30
same,Ap (Apomorphine test),[3],> 30
same,YO (Yohimbine test),yohimbine hydrochloride,> 30
same,ED50,[4]; read-out: ED50 Ch,0.35 mg/kg
same,ED50,[5]; read-out: ED50 D,0.8 mg/kg
"NCc1nnc2n1-c1ccc(Cl)cc1C(c1ccccc1)=NC2 [8-Chloro-1-(aminomethyl)-6-phenyl-4H-s-triazolo[4,3-a][1,4]benzodiazepine]",LD50,LD50 values in mice; TABLE V,> 100 mg/kg
same,Oxo (Oxotremorine test),oxotremorine [2],29.7
same,Ap (Apomorphine test),[3],2.6
same,YO (Yohimbine test),yohimbine hydrochloride,35.4
"CCN(CC)Cc1nnc2n1-c1ccc(Cl)cc1C(c1ccccc1Cl)=NC2 [8-Chloro-1-[(diethylamino)methyl]-6-(o-chlorophenyl)-4H-s-triazolo[4,3-a][1,4]benzodiazepine]",ED50,nicotine salicylate; read-out: ED50 Ni,0.08 mg/kg
same,ED50,[1]; read-out: ED50 P,0.4 mg/kg
same,ED50,[4]; read-out: ED50 Ch,0.63 mg/kg
same,ED50,[5]; read-out: ED50 D,0.11 mg/kg
"CCN(CC)Cc1nnc2n1-c1ccc(Cl)cc1C(c1ccccc1)=NC2 [8-Chloro-1-[(diethylamino)methyl]-6-phenyl-4H-s-triazolo[4,3-a][1,4]benzodiazepine]",LD50,LD50 values in mice; [8],> 100 mg/kg
same,ED50,"oxotremorine [2]; mice, oxotremorine 1 mg. i.p., 30 minutes, second TABLE I",50 mg/kg
same,ED50,yohimbine hydrochloride,42 mg/kg
same,ED50,[6],14.9 mg/kg
"CN(C)Cc1nnc2n1-c1ccc(Cl)cc1C(c1ccccc1Cl)=NC2 [8-Chloro-1-[(dimethylamino)methyl]-6-(o-chlorophenyl)-4H-s-triazolo[4,3-a][1,4]benzodiazepine]",ED50,nicotine salicylate; read-out: ED50 Ni,0.63 mg/kg
same,ED50,[1]; read-out: ED50 P,0.36 mg/kg
same,LD50,LD50 values in mice; TABLE V,> 100 mg/kg
same,Oxo (Oxotremorine test),oxotremorine [2],> 30
same,Ap (Apomorphine test),[3],17.8
same,YO (Yohimbine test),yohimbine hydrochloride,> 30
same,ED50,[4]; read-out: ED50 Ch,0.2 mg/kg
same,ED50,[5]; read-out: ED50 D,0.36 mg/kg
"CN(C)Cc1nnc2n1-c1ccc(Cl)cc1C(c1ccccc1)=NC2 [8-Chloro-1-[(dimethylamino)methyl]-6-phenyl-4H-s-triazolo[4,3-a][1,4]benzodiazepine]",ED50,nicotine salicylate; read-out: dosage protecting 50% of the animals against death (nicotine antagonism),0.11 mg/kg
same,ED50,"[1]; read-out: ED50, pedestal test",0.8 mg/kg
same,LD50,LD50 values in mice; [8],476 mg/kg
same,ED50,oxotremorine [2],5.3 mg/kg
same,ED50,yohimbine hydrochloride,12.5 mg/kg
same,ED50,"[4]; read-out: effective intraperitoneal dosage for 50% of mice (ED50), chimney test",2.3 mg/kg
same,ED50,"[5]; read-out: ED50, dish test",0.28 mg/kg
same,ED50,[6],5.3 mg/kg
same,ED50,"strychnine sulfate; Mus musculus, po, 4 h, read-out: effective dosage ED50, antagonism to strychnine",50 mg/kg
"CN(C)CCC=C1c2ccccc2COc2ccccc21 [Doxepine, reference compound]",LD50,LD50 values in mice; [8],126 mg/kg
same,ED50,oxotremorine [2],14.9 mg/kg
same,effect on oxotremorine-induced temperature decrease / hypothermic response,oxotremorine [7],antagonized
same,ED50,yohimbine hydrochloride,17.7 mg/kg
same,ED50,[6],17.7 mg/kg
"CN(C)CCCN1c2ccccc2CCc2ccccc21 [Imipramine, reference compound]",ED50,oxotremorine [2],5.3 mg/kg
same,ED50,yohimbine hydrochloride,4.4 mg/kg
same,ED50,[6],17.7 mg/kg
"O=C1CCCN1CC#CCN1CCCC1 [Oxotremorine, 1-(4-pyrrolidino-2-butynyl)-2-pyrrolidinone]",decrease of body temperature,"oxotremorine [7]; 0.6 mg./kg. oxotremorine, mouse kept at room temperature",about 13 ° F.
same,hypothermic response,oxotremorine [7],produces hypothermic responses in mice; also recorded: very pronounced hypothermia
CN1CCc2cccc3c2[C@H]1Cc1ccc(O)c(O)c1-3 [apomorphine],hypothermic response,oxotremorine [7],produces hypothermic responses in mice
CN1[C@@H]2CC[C@H]1C[C@@H](OC(=O)C(CO)c1ccccc1)C2 (stereo partly shown) [atropine],effect on oxotremorine-induced temperature decrease / hypothermic response,oxotremorine [7],blocked
CNCCCN1c2ccccc2CCc2ccccc21 [desipramine],effect on oxotremorine-induced temperature decrease / hypothermic response,oxotremorine [7],antagonized
"CN1CCC[C@H]1c1cccnc1 [nicotine salicylate, reference compound]",effect of nicotine salicylate in control mice,"nicotine salicylate; 2 mg./kg., injected",overstimulation
"O=C1C[C@@H]2OCC=C3CN4CC[C@]56c7ccccc7N1[C@H]5[C@H]2[C@H]3C[C@H]46 [strychnine sulfate, reference compound]",lethality of strychnine sulfate in control mice,strychnine sulfate; 3 mg./kg. intraperitoneally,routinely fatal to all the control mice
COc1cc2c(cc1OC)C1CC(=O)C(CC(C)C)CN1CC2 (stereo not shown) [tetrabenazine],hypothermic response,oxotremorine [7],produces hypothermic responses in mice
COC(=O)[C@@H]1[C@H]2C[C@H]3c4[nH]c5ccccc5c4CCN3C[C@@H]2CC[C@@H]1O [yohimbine hydrochloride],lethality of yohimbine hydrochloride alone,"yohimbine hydrochloride; 30 mg./kg. (30 mg.), mice",non-lethal
same,LD50,in vivo,45 mg/kg
